Results taken from patent US20100041892A1, “Therapeutic agent for diabetes” (priority 2005, published 2010).
Read-outs that look alike come from different tables or passages of the source.

What was measured:
[1] = test system: KKAy mice; test: Blood glucose and blood lipid (triglyceride) lowering action in mice; type: in vivo; details: Mus musculus, 4TO7, po, 0.03% in powder diet, 4 to 7 days
Text: The test compound was mixed with a powder diet (CE-2, CLEA JAPAN, INC.) at a proportion of 0.01% (0.03% for the compounds of Examples 1, 2, 12, 81, 94, 96, 129 and 143, and 0.005% for the compounds of Examples 28, 30 and 37) and freely given to KKAy mice (9 to 14-week-old, 5 mice per group) which are obesity non-insulin-dependent diabetes (type-2 diabetes) models, for 4 to 7 days. During this period, water was freely given. The blood was drawn from the orbital venous plexus. Glucose and triglyceride in the plasma separated from the blood were quantitated using L Type Wako Glu2 (Wako Pure Chemical Industries, Ltd.) and L Type Wako TG·H (Wako Pure Chemical Industries, Ltd.), respectively, according to an enzyme method.

SMILES | melting point [°C] | further results
CCCCCS(=O)(=O)NC(=O)CCc1cc(OC(C)C)nn1Cc1ccc(C(F)(F)F)cc1Cl [Example 143, 3-{1-[2-chloro-4-(trifluoromethyl)benzyl]-3-isopropoxy-1H-pyrazol-5-yl}-N-(pentylsulfonyl)propanamide] |  | response vs control in vivo at 0.03 % ([1]; plasma glucose relative to non-administration group = 100%, read-out: hypoglycemic action (%)): 47%; response vs control in vivo at 0.03 % ([1]; plasma triglyceride relative to non-administration group = 100%, read-out: hypolipidemic action (%)): 76%
COCCOc1ccc(/C=C/C(=O)NS(=O)(=O)CC(F)(F)F)c(Oc2ncc(C(F)(F)F)cc2Cl)c1 [Example 246, (2E)-3-[2-{[3-chloro-5-(trifluoromethyl)pyridin-2-yl]oxy}-4-(2-methoxyethoxy)phenyl]-N-[(2,2,2-trifluoroethyl)sulfonyl]acrylamide] | 146 to 147.5 | 
CCCCCS(=O)(=O)NC(=O)/C=C/c1ccc(OCCCOCCOC)cc1Oc1ncc(C(F)(F)F)cc1Cl [Example 254, (2E)-3-{2-{[3-chloro-5-(trifluoromethyl)pyridin-2-yl]oxy}-4-[3-(2-methoxyethoxy)propoxy]phenyl}-N-(pentylsulfonyl)acrylamide] | 103 to 105 | 
CCCCCS(=O)(=O)NC(=O)/C=C/c1ccc(OCCCOCC2CC2)cc1Oc1ncc(C(F)(F)F)cc1Cl [Example 259, (2E)-3-{2-{[3-chloro-5-(trifluoromethyl)pyridin-2-yl]oxy}-4-[3-(cyclopropylmethoxy)propoxy]phenyl}-N-(pentylsulfonyl)acrylamide] | 124 to 125 | 
CCCCCS(=O)(=O)NC(=O)CCc1ccc(OCCC2(C)OCCO2)cc1Oc1ncc(C(F)(F)F)cc1Cl [Example 425, 3-{2-{[3-chloro-5-(trifluoromethyl)pyridin-2-yl]oxy}-4-[2-(2-methyl-1,3-dioxolan-2-yl)ethoxy]phenyl}-N-(pentylsulfonyl)propanamide] | 96.5 to 97.5 | 
COCCOc1ccc(CCCOC(=O)NS(N)(=O)=O)c(Oc2ncc(Cl)cc2Cl)c1 [Example 426, 3-[2-[(3,5-dichloropyridin-2-yl)oxy]-4-(2-methoxyethoxy)phenyl]propyl (aminosulfonyl)carbamate] | 153.2 to 153.8 | 
COCCCNS(=O)(=O)NC(=O)OCCCc1ccc(OCCOC)cc1Oc1ncc(Cl)cc1Cl [Example 428, 3-[2-[(3,5-dichloropyridin-2-yl)oxy]-4-(2-methoxyethoxy)phenyl]propyl {[(3-methoxypropyl)amino]sulfonyl}carbamate] | 87.9 to 89 | 
COCCCNS(=O)(=O)NC(=O)OC/C=C/c1ccc(OCCOC)cc1Oc1ncc(C(F)(F)F)cc1Cl [Example 432, (2E)-3-[2-{[3-chloro-5-(trifluoromethyl)pyridin-2-yl]oxy}-4-(2-methoxyethoxy)phenyl]prop-2-en-1-yl {[(3-methoxypropyl)amino]sulfonyl}carbamate] | 98 to 100 | 
COCCOc1ccc(/C=C/COC(=O)NS(=O)(=O)NCCN2CCCC2)c(Oc2ncc(C(F)(F)F)cc2Cl)c1 [Example 434, (2E)-3-[2-{[3-chloro-5-(trifluoromethyl)pyridin-2-yl]oxy}-4-(2-methoxyethoxy)phenyl]prop-2-en-1-yl {[(2-pyrrolidin-1-ylethyl)amino]sulfonyl}carbamate] | 154 to 156 | 
COCCOc1ccc(/C=C/COC(=O)NS(=O)(=O)NCCc2ccccc2)c(Oc2ncc(C(F)(F)F)cc2Cl)c1 [Example 435, (2E)-3-[2-{[3-chloro-5-(trifluoromethyl)pyridin-2-yl]oxy}-4-(2-methoxyethoxy)phenyl]prop-2-en-1-yl {[(2-phenylethyl)amino]sulfonyl}carbamate] | 113 to 114 | 
CCCCCS(=O)(=O)NC(=O)/C=C/c1ccc(OCC(C)=O)cc1Oc1ncc(C(F)(F)F)cc1Cl [Example 452, (2E)-3-[2-{[3-chloro-5-(trifluoromethyl)pyridin-2-yl]oxy}-4-(2-oxopropoxy)phenyl]-N-(pentylsulfonyl)acrylamide] | 187 to 188 | 
CCCCCS(=O)(=O)NC(=O)/C=C/c1ccc(OCC(COC(C)C)OC(C)=O)cc1Oc1ncc(C(F)(F)F)cc1Cl (centres unmarked) [Example 455, 2-(3-{[3-chloro-5-(trifluoromethyl)pyridin-2-yl]oxy}-4-{(1E)-3-oxo-3-[(pentylsulfonyl)amino]prop-1-en-1-yl}phenoxy)-1-(isopropoxymethyl)ethyl acetate] | 101 to 103 | 
CCCCCS(=O)(=O)NC(=O)/C=C/c1ccc(OCC(O)COC(C)C)cc1Oc1ncc(C(F)(F)F)cc1Cl (centres unmarked) [Example 456, (2E)-3-[2-{[3-chloro-5-(trifluoromethyl)pyridin-2-yl]oxy}-4-(2-hydroxy-3-isopropoxypropoxy)phenyl]-N-(pentylsulfonyl)acrylamide] | 86 to 88 | 
CCCCCS(=O)(=O)NC(=O)/C=C/c1ccc(C)n1Cc1ccc(Cl)cc1Cl [Example 457, (2E)-3-[1-(2,4-dichlorobenzyl)-5-methyl-1H-pyrrol-2-yl]-N-(pentylsulfonyl)acrylamide] | 189 to 190 | 
CCCCCS(=O)(=O)NC(=O)/C=C/c1c(C)cc(C)n1Cc1ccc(Cl)cc1Cl [Example 458, (2E)-3-[1-{2,4-dichlorobenzyl)-3,5-dimethyl-1H-pyrrol-2-yl]-N-(pentylsulfonyl)acrylamide] | 170 to 171 | 
CCCCCS(=O)(=O)NC(=O)/C=C/c1ccc(OCCOC)cc1Oc1ncc(Br)cc1C [Example 460, (2E)-3-[2-[(5-bromo-3-methylpyridin-2-yl)oxy]-4-(2-methoxyethoxy)phenyl]-N-(pentylsulfonyl)acrylamide] | 159.8 to 160.2 | 
CCCCCS(=O)(=O)NC(=O)/C=C/c1ccc(OCCOC)cc1Oc1ncc(NC(C)=O)cc1C [Example 463, (2E)-3-[2-{[5-(acetylamino)-3-methylpyridin-2-yl]oxy}-4-(2-methoxyethoxy)phenyl]-N-(pentylsulfonyl)acrylamide] | 187.9 to 188.2 | 
CCOC(=O)c1cnc(Oc2cc(OCCOC)ccc2CCCOC(=O)NCC2CC2)c(Cl)c1 [Example 465, ethyl 5-chloro-6-[2-[3-({[(cyclopropylmethyl)amino]carbonyl}oxy)propyl]-5-(2-methoxyethoxy)phenoxy]nicotinate] | 94.6 to 94.8 | 
CCCCCS(=O)(=O)NC(=O)/C=C/c1ccc(OCCOC)cc1Oc1ncc(-c2ccccc2)cc1C [Example 467, (2E)-3-{4-(2-methoxyethoxy)-2-[(3-methyl-5-phenylpyridin-2-yl)oxy]phenyl}-N-(pentylsulfonyl)acrylamide] | 132.8 to 133.5 | 
C/C(=C\c1ccc(OC(C)C)cc1Oc1ncc(C(F)(F)F)cc1Cl)C(=O)NS(=O)(=O)NCc1cnc(C)cn1 [Example 470, (2E)-3-(2-{[3-chloro-5-(trifluoromethyl)pyridin-2-yl]oxy}-4-isopropoxyphenyl)-2-methyl-N-({[(5-methylpyrazin-2-yl)methyl]amino}sulfonyl)acrylamide] | 126 to 128 | 
C/C(=C\c1ccc(OC(C)C)cc1Oc1ncc(C(F)(F)F)cc1Cl)C(=O)NS(=O)(=O)NCCc1ccccn1 [Example 471, (2E)-3-(2-{[3-chloro-5-(trifluoromethyl)pyridin-2-yl]oxy}-4-isopropoxyphenyl)-2-methyl-N-{[(2-pyridin-2-ylethyl)amino]sulfonyl}acrylamide] | 121 to 123 | 
CCCCOc1ccc(CCCOC(=O)NS(=O)(=O)NCCOC(C)C)c(Oc2ncc(C(F)(F)F)cc2Cl)c1 [Example 473, 3-(4-butoxy-2-{[3-chloro-5-(trifluoromethyl)pyridin-2-yl]oxy}phenyl)propyl {[(2-isopropoxyethyl)amino]sulfonyl}carbamate] | 91.4 to 91.6 | 
COCCCOc1ccc(CCCOC(=O)NS(=O)(=O)NCCOC(C)C)c(Oc2ncc(C(F)(F)F)cc2Cl)c1 [Example 474, 3-[2-{[3-chloro-5-(trifluoromethyl)pyridin-2-yl]oxy}-4-(3-methoxypropoxy)phenyl]propyl {[(2-isopropoxyethyl)amino]sulfonyl}carbamate] | 67.4 to 68 | 
C=CCCOc1ccc(CCCOC(=O)NS(=O)(=O)NCCOC(C)C)c(Oc2ncc(C(F)(F)F)cc2Cl)c1 [Example 475, 3-(4-(but-3-en-1-yloxy)-2-{[3-chloro-5-(trifluoromethyl)pyridin-2-yl]oxy}phenyl)propyl {[(2-isopropoxyethyl)amino]sulfonyl}carbamate] | 111.1 to 113 | 
CC(C)OCCNS(=O)(=O)NC(=O)OCCCc1ccc(OCc2ccco2)cc1Oc1ncc(C(F)(F)F)cc1Cl [Example 476, 3-[2-{[3-chloro-5-(trifluoromethyl)pyridin-2-yl]oxy}-4-(2-furylmethoxy)phenyl]propyl {[(2-isopropoxyethyl)amino]sulfonyl}carbamate] | 118 to 119.8 | 
